This series in a line: in vitro. The following applies: human, hela cells, % viability.

Turning to `CCC(c1nc2ccccc2c(=O)n1CCCn1ccnc1)N1C(=O)c2ccccc2C1=O` (centres unmarked) [CBK268560], the viability (in general, a read-out of living cells in per cent, often relative to untreated cells) at 28.5 h, 10 µM was found to be 107%.

Regarding `CCN1CCN(c2nc(N)c3ccccc3n2)CC1` [CBK268561C], the viability at 28.5 h, 10 µM came to 82.4%.

Consider `O=C(O)Cc1ccc(NC(=O)CN2C(=O)c3ccccc3C2=O)cc1` [CBK268562], for which the viability at 28.5 h, 10 µM is 104%.

Consider `O=C(O)c1cc(NC(=O)C2CC2)cc(C(=O)O)c1` [CBK268564], for which the viability at 28.5 h, 10 µM was 94.3%.

As to `Cc1ccc([N+](=O)[O-])c(OCCN2CCN(Cc3ccccc3)CC2)c1` [CBK268568G], the viability at 28.5 h, 10 µM came to 99.2%.

For the molecule `Cc1ccc(C(=O)NCCC(=O)Nc2ccccc2C)cc1` [CBK268569], the viability at 28.5 h, 10 µM was determined as 103%.

As for `Cc1ccc(SC(C)C(=O)Nn2cnnc2)cc1` (centres unmarked) [CBK268570], the viability at 28.5 h, 10 µM was determined as 93.3%.

Regarding `O=C(O)COc1ccc(NC(=O)Cc2ccc([N+](=O)[O-])cc2)cc1` [CBK268573], the viability at 28.5 h, 10 µM came to 104%.

With `O=C(NCCSCc1c(F)cccc1Cl)Nc1cccc(Cl)c1` [CBK268574], the viability at 28.5 h, 10 µM stood at 98.6%.

Consider `Brc1c(OCCNCCN2CCOCC2)ccc2ccccc12` [CBK268576G], for which the viability at 28.5 h, 10 µM came to 115%.

With `O=C(Nc1ccc(NC(=O)c2cc3ccccc3o2)cc1)c1ccc(-c2cccc([N+](=O)[O-])c2)o1` [CBK268579], the viability at 28.5 h, 10 µM was determined as 86.8%.

`Cc1ccc(OCc2nnc(SCC(=O)c3cccc([N+](=O)[O-])c3)n2C)cc1` [CBK268580]: the viability at 28.5 h, 10 µM came out at 86.9%.

Regarding `Cc1ccc(SCCNCCN2CCOCC2)cc1` [CBK268581G], the viability at 28.5 h, 10 µM amounted to 104%.

Take `CCN1CCN(c2ccc(NC(=S)NC(=O)c3ccccc3Br)cc2)CC1` [CBK268583]: the viability at 28.5 h, 10 µM came to 102%.

With `CN(Cc1ccccc1)C(=O)CCNS(=O)(=O)c1ccccc1` [CBK268585], the viability at 28.5 h, 10 µM is 103%.

With `CN(Cc1ccccc1)C(=O)CNS(=O)(=O)c1ccc([N+](=O)[O-])cc1` [CBK268586], the viability at 28.5 h, 10 µM came to 107%.

On to `Cc1nnc2sc(-c3ccc(CNC(=S)NC(=O)c4ccccc4[N+](=O)[O-])cc3)nn12` [CBK268588], for which the viability at 28.5 h, 10 µM came out at 84.6%.

As for `Cc1ccc(S(=O)(=O)Cc2ccc(C(=O)Nc3cccc(-c4cnc5ccccc5n4)c3)cc2)cc1` [CBK268589], the viability at 28.5 h, 10 µM was 89.3%.

With `Cc1ccccc1OCCCNCCN1CCOCC1` [CBK268590C], the viability at 28.5 h, 10 µM is 106%.

Turning to `COc1c(C(=O)Nc2ccc(CN3CCOCC3)cc2)cc2ccccc2c1Br` [CBK268593], the viability at 28.5 h, 10 µM was 103%.

Take `CC(C(=O)Nc1ccc2c(c1)OCO2)N(c1ccc(Cl)cc1)S(C)(=O)=O` (centres unmarked) [CBK268595]: the viability at 28.5 h, 10 µM amounted to 89.5%.

In the case of `CCN1CCN(c2c(Cl)cccc2NC(=O)c2ccc(-c3cccc([N+](=O)[O-])c3)o2)CC1` [CBK268596], the viability at 28.5 h, 10 µM is 86.4%.

In the case of `CN(CC(=O)Nn1cnnc1)S(=O)(=O)c1ccc(Br)cc1` [CBK268597], the viability at 28.5 h, 10 µM turned out to be 85.9%.

As for `COc1cc(NC(=O)c2ccc(-c3cc4ccccc4oc3=O)cc2)ccc1NC(=O)C(C)C` [CBK268601], the viability at 28.5 h, 10 µM was 103%.

Regarding `CS(=O)(=O)N1CCN(c2ccc(NC(=O)c3ccc(-c4cccc([N+](=O)[O-])c4)o3)cc2)CC1` [CBK268602], the viability at 28.5 h, 10 µM is 98.6%.

Consider `Clc1ccc(SCCCNCCN2CCOCC2)cc1` [CBK268603C], for which the viability at 28.5 h, 10 µM was determined as 90.3%.

In the case of `Cc1ccccc1OC(C)C(=O)Nc1nnc[nH]1` (centres unmarked) [CBK268605], the viability at 28.5 h, 10 µM was 85.6%.

As for `O=C(Nc1ccccc1C(=O)N1CCCC1)c1ccccc1CCc1ccccc1` [CBK268608], the viability at 28.5 h, 10 µM turned out to be 104%.

With `Cc1cc(OCc2nnc(SCC(=O)N3CCN(c4ccccc4)CC3)n2C)ccc1Cl` [CBK268611], the viability at 28.5 h, 10 µM is 104%.

Take `O=C(Nc1ccc2oc(-c3cccnc3)nc2c1)c1cccc(-c2cc3ccccc3oc2=O)c1` [CBK268612]: the viability at 28.5 h, 10 µM turned out to be 89.3%.

As to `O=C(CN1C(=O)c2ccccc2C1=O)Nc1cccc(-c2cnc3ccccc3n2)c1` [CBK268614], the viability at 28.5 h, 10 µM was 115%.

`O=C(Nc1nnc[nH]1)c1ccccc1CCc1ccccc1` [CBK268616]: the viability at 28.5 h, 10 µM came to 95.9%.

Consider `Cc1ccccc1OC(C)C(=O)Nn1cnnc1` (centres unmarked) [CBK268619], for which the viability at 28.5 h, 10 µM amounted to 96.2%.

For `O=C(CCN1C(=O)c2cccc([N+](=O)[O-])c2C1=O)Nc1cccc(-c2cnc3ccccc3n2)c1` [CBK268620], the viability at 28.5 h, 10 µM came out at 104%.

On to `CC(=O)Nc1ccccc1NC(=O)c1ccccc1CCc1ccccc1` [CBK268621], for which the viability at 28.5 h, 10 µM worked out at 97.1%.

As for `O=C(Nc1ccc(N2CCN(Cc3ccccc3)CC2)cc1)c1ccc(-c2ccccc2)cc1` [CBK268622], the viability at 28.5 h, 10 µM is 109%.

Take `Cc1c(NC(=O)c2ccc3c(c2)C(=O)N(Cc2ccco2)C3=O)cccc1C(=O)O` [CBK268627]: the viability at 28.5 h, 10 µM was 92.9%.

`O=[N+]([O-])c1cccc(C(Nc2cccnc2)c2cc(Cl)c3cccnc3c2O)c1` (centres unmarked) [CBK268629]: the viability at 28.5 h, 10 µM was 93.7%.

Consider `Cc1ccc(S(=O)(=O)Cc2ccc(C(=O)NCc3ccco3)cc2)cc1` [CBK268630], for which the viability at 28.5 h, 10 µM turned out to be 105%.

As to `NCCCNCCOc1ccc(Cl)c(Cl)c1` [CBK268631C], the viability at 28.5 h, 10 µM stood at 111%.

In the case of `CC(O)CNCCCOc1ccccc1-c1ccccc1` (centres unmarked) [CBK268633G], the viability at 28.5 h, 10 µM came to 97.6%.

Turning to `CC(C)(C)C1CCc2c(sc(NC(=S)NC(=O)c3cc4ccccc4o3)c2C(N)=O)C1` (centres unmarked) [CBK268635], the viability at 28.5 h, 10 µM worked out at 95%.

On to `Cc1ccc(-c2ccc(CCC(=O)O)n2CC2CCCO2)cc1` (centres unmarked) [CBK268636], for which the viability at 28.5 h, 10 µM was 101%.

Turning to `Oc1c(C(Nc2cccnc2)c2cccs2)ccc2cccnc12` (centres unmarked) [CBK268637], the viability at 28.5 h, 10 µM was 72.4%.

For the molecule `Cc1ccc(SC(C)C(=O)Nc2nc[nH]n2)cc1` (centres unmarked) [CBK268638], the viability at 28.5 h, 10 µM was 107%.

As to `O=C(COc1ccccc1[N+](=O)[O-])Nc1cc(-c2nc3cc(Cl)ccc3o2)ccc1Cl` [CBK268639], the viability at 28.5 h, 10 µM came out at 116%.

Take `Cc1ccc(OC(C)C(=O)N(C)c2ccccc2)cc1` (centres unmarked) [CBK268645]: the viability at 28.5 h, 10 µM is 111%.

Take `COc1cc(OC)c(NC(=O)C(C)Oc2cccc(C)c2)cc1Cl` (centres unmarked) [CBK268646]: the viability at 28.5 h, 10 µM came out at 107%.

As for `COc1cc(NC(=O)COc2cc(C)cc(C)c2)c(C(=O)O)cc1OC` [CBK268650], the viability at 28.5 h, 10 µM is 93.8%.

As for `Cc1cccc(NC(=O)Cn2cc(C(=O)COc3ccccc3)c3ccccc32)c1` [CBK268654], the viability at 28.5 h, 10 µM stood at 104%.

Consider `Cc1ccc(SCC(=O)Nc2cc([N+](=O)[O-])ccc2O)cc1` [CBK268655], for which the viability at 28.5 h, 10 µM was 123%.

Consider `O=C(CSCc1ccccc1Cl)Nc1ccc(-c2nnc(-c3ccccc3)o2)cc1` [CBK268656], for which the viability at 28.5 h, 10 µM is 111%.

Regarding `CC(CNC(=O)C(C)Oc1ccccc1)CN(C)C` (centres unmarked) [CBK268658], the viability at 28.5 h, 10 µM worked out at 94%.

For `COc1cccc(C(=O)Nc2ccc(O)cc2C(=O)O)c1` [CBK268662], the viability at 28.5 h, 10 µM amounted to 104%.

Take `O=C(Nc1ccc2oc(-c3cccnc3)nc2c1)c1ccc(N2CCOCC2)c([N+](=O)[O-])c1` [CBK268664]: the viability at 28.5 h, 10 µM was determined as 100%.

`COc1ccc(-c2noc(CSc3nc4ccccc4c(=O)n3-c3ccccc3)n2)cc1OC` [CBK268667]: the viability at 28.5 h, 10 µM stood at 100%.
